The test addresses Sys410 (uncultured bacterium, UniProt H9CDG2). Description: spectrophotometric p-nitrophenol release at […] nm, Michaelis-Menten fit. The settings on record: pH 6.5, potassium phosphate 50 mM, 55°C, gum arabic and Triton X-100 in substrate solution.

Sys410, sequence (H9CDG2 1-280 limits assumed): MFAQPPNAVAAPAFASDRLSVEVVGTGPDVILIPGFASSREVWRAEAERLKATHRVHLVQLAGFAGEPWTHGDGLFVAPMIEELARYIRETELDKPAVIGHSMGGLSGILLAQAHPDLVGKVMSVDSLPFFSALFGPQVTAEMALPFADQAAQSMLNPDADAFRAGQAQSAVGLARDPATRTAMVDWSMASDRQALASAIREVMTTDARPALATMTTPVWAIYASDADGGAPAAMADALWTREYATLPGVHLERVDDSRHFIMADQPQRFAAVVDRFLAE

For the molecule `CCCCCCCC(=O)Oc1ccc([N+](=O)[O-])cc1` [C6, ρ-nitrophenyl caprylate], the Michaelis constant (Km) (paper labels caprylate as C6, chain length uncertain) is 33.2 ± 2.1 µM.
On to `CCCCCC(=O)Oc1ccc([N+](=O)[O-])cc1` [C8, ρ-nitrophenyl caproate], for which the Km (paper labels caproate as C8, chain length uncertain) was 57.6 ± 1.9 µM.

Broadly, the Km is the substrate concentration at which the rate is half of its maximum.

(Values after paper PMC3317823, “Identification and characterization of a novel thermostable pyrethroid-hydrolyzing enzyme isolated through metagenomic approach” (Microbial Cell Factories, 2012).)
